Test: Test for encapsulating rate of drugs in nanoparticles encapsulating double drugs
Assay type: physicochemical
Conditions: trend as pH of the aqueous mixture solution increased (pH 7.5 to 11, FIG. 1)
Procedure: The synthesized nanoparticles encapsulating double drugs were placed in a concentrating centrifuge tube, and perform centrifugation at a speed of 4,000 rpm for 30 minutes.
(1). Encapsulating Rate of Cisplatin
The clear solution in the concentrating centrifuge tube was diluted 20 folds and mixed with 0.14% solution of o-phenylenediamine in dimethylformamide at a ratio of 1:1, the mixture was heated at 100° C. for 30 minutes and then was cooled in a refrigerator at −20° C. for 10 minutes, finally, the solution was examined for the peak value at a wavelength of 705 nm with UV-visual spectrum, and content of non-encapsulated Cisplatin was converted from the peak value, thereby giving the encapsulating rate of Cisplatin.
(2). Encapsulating Rate Test of Demethoxycurcumin
The nanoparticles on the filter membrane of the concentrating centrifuge tube were re-dissolved in double-distilled water, the solution was mixed with methanol at a ratio of 1:1, and the mixture was analyzed using HPLC. The determination was performed at a flow rate of 1 mL/min under the detection condition at a wavelength of 425 nm, using C18 as stationary phase and acetonitrile-0.3% FA (50:50, v/v) as mobile phase, and the detection result was converted into the concentration of demethoxycurcumin to obtain the encapsulating rate of the drug.

## N.N.[Cl][Pt][Cl] [Cisplatin]
  encapsulating rate: increased
